Test results reported in patent EP4624471A1, “PKMYT1 INHIBITOR, PREPARATION METHOD THEREFOR, AND PHARMACEUTICAL COMPOSITION AND USE THEREOF” (Shanghai Qilu Pharmaceutical Research and Development …, priority 2022, dated 2024).
In brackets after ≈: the same amount, converted by molar mass.

How the values were obtained:
[1] = Metabolic stability in mouse liver microsomes
Protocol: The concentration of the parent drug in the incubation system was detected by LC/MS/MS, and the intrinsic clearance rate of the test compound in the microsome system was calculated to evaluate its stability. The test concentration of the test compound and the positive control compound was 1 µM. • 1. 25 µL of NADPH (10 mM) or phosphate buffered saline (100 mM, pH = 7.4) was transferred to the liver microsome incubation system, and 2 µL of the test sample or verapamil at a concentration of 200 µM was added. Samples supplemented with NADPH were prepared in duplicate, and NADPH-negative samples were prepared in singlicate. • 2. 30 µL of the suspension was taken at 0.5, 5, 15, 30, and 60 minutes, respectively. The reaction was stopped by adding 180 µL of acetonitrile containing internal standard and vortexed for 10 min. • 3. […] 100 µL of the supernatant was transferred to the sample injection plate, and 100 µL of pure water was added and mixed well for UPLC-MS/MS analysis. • 4. All data calculations were performed using Microsoft Excel software. Peak areas were detected by extracting ion chromatograms. The in vitro half-life (t1/2) of the parent drug was detected by linear fitting the natural logarithm of the parent drug elimination percentage with time.
The in vitro clearance rate Clint (unit: µL/min/mg) was calculated: in vitro CLint = kV/N; V = incubation volume per well (400 µL); V = incubation volume per well (400 µL).

HCC1569 cells = test: Cytostatic activity, CTG assay (HCC1569); format: cell-based; details: Homo sapiens, 5 days
Protocol: Biological test example 2. Cytostatic activity of compounds of the present disclosure
CTG assay (HCC1569) was used to verify the biological activity of some of the example compounds of the present disclosure.
HCC1569 cells were purchased from ATCC (Cat. No.: CRL-2330) and cultured in a 37°C, 5% CO2 cell culture incubator. HCC1569 complete medium: RPMI-1640 liquid medium (Cat. No.: Gibico 11875-093), 20% FBS (Cat. No.: Gibico 10099-141), 1% Pen Strep (Cat. No.: Gibico 15070-063).
HCC1569 cells in a 75 cm^2 culture flask were digested with 2 mL of trypsin for 2-3 min, and then neutralized with 2 mL of 1640 complete medium. The mixture was centrifuged at 1200 rpm for 5 minutes. Cells were resuspended using 4 mL of 1640 complete medium. 500 µL of cell suspension was taken for cell counting using Vi-CELL-XR cell counter.
Using a Multidrop instrument, the HCC1569 cells were seeded in a 384-well plate at a density of 1000 cells per well (50 µL 1640 Growth Media) and administrated 24 hours later.
Using an ultra-micro pipette, the test compound (concentration: 3.33 mM, dissolved in DMSO) was diluted with 10 µM as the highest starting concentration, and then sequentially diluted in 10 gradients at a ratio of 1:3 (10000 nM, 3333 nM, 1111 nM, 370 nM, 123 nM, 41 nM, 13.7 nM, 4.6 nM, 1.5 nM, 0.5 nM) for administration treatment, with two duplicate wells for each concentration; 14 wells for positive and negative controls were set, with the positive control being the duplicate wells of 10 µM positive compound and the negative control being the duplicate wells of DMSO.
After the administration was completed, the cells were placed in a 37°C incubator for further culture for 5 days. After 5 days, 25 µL of CTG buffer was added to each well for CTG assay detection, and analyzed using a microplate reader. CTG readings were analyzed.
a = CTG value (highest concentration), b = CTG value (blank well), x = CTG value(test well).
IC50 was calculated using GraphPad PRISM 8.
Log10 (A compound concentration) was used for statistical calculation. (2) The data were input into GraphPad PRISM 8, and Analysis was selected. (3) Nonlinear regression (curve fit) was selected. (4) Log (inhibitor) vs. response-Variable slope was selected. (5) The calculation formula was selected, and the calculation was carried out according to the following formula: Y = Bottom + (Top-Bottom)/(1+10^((LogIC50-X)*HillSlope)), X: logarithm of dose or concentration, Y: response value, Top and Bottom: peak and bottom values. (6) The data were fitted to obtain IC50 values. (7) The fitting conditions were adjusted according to the specific data. Appropriate Constraint conditions were adjusted for Bottom, Top, and HillSlope. The curve that best fits the actual situation has been reached.

PKMYT1 enzyme = target: T1, PKMYT1 enzyme (Homo sapiens, UniProt Q99640); test: PKMYT1 enzyme inhibition activity, ADP-GLO method; format: biochemical; details: PKMYT1 enzyme 10 nM, ATP 5 µM, 37°C 90 minutes; read-out: ADP-GLO IC50
T1 construct: purchased Thermo Scientific A33387
T1 sequence (Q99640 1-499): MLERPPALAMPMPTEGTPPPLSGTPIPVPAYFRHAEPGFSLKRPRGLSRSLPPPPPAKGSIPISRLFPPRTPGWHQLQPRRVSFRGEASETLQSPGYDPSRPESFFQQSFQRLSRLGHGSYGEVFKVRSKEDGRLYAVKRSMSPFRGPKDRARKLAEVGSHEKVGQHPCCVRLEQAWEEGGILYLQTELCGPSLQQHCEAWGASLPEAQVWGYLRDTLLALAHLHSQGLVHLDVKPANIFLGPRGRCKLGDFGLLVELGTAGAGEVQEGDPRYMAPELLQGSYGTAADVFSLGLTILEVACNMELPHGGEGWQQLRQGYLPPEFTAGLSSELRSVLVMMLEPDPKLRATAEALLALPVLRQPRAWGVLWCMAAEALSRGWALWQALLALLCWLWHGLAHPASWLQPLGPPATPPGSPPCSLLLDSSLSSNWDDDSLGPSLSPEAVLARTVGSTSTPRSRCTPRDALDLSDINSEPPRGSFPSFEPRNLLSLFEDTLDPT
Protocol: Enzyme inhibition activity of compounds of the present disclosure
The enzyme activity of some of the example compounds was verified using the ADP-GLO method.
PKMYT1 enzyme protein was purchased from Thermo Scientific (Cat. No.: A33387), and the ADP-GLO kit was purchased from Promega (Cat. No.: V9103).
PKMYT1 enzyme activity reaction buffer: 70 mM HEPES, 3 mM MgCl2, 3 mM MnCl2, 50 µg mL-1PEG20000, 3 µM sodium orthovanadate, 1.2 mM DTT.
The reaction plate with the added compounds was centrifuged at 2500 rpm for 1 minute.
The prepared enzyme solution was added to the reaction plate, 5 µL per well, and the final concentration of enzyme was 10 nM. The reaction plate was centrifuged at 1000 rpm for 1 minute. The reaction plate was placed in an incubator at 37°C for 15 minutes.
The prepared ATP substrate solution was added to the reaction plate, 5 µL per well, and the final concentration of ATP was 5 µM. The reaction plate was centrifuged at 1000 rpm for 1 minute. After sealing the plate with aluminum foil, the plate was placed in an incubator and the reaction was carried out at 37°C for 90 minutes.
10 µL of ADP-glo™ reagent was added to stop the kinase reaction and consume unconsumed ATP, leaving only ADP and a very low ATP background. The reaction plate was centrifuged at 1000 rpm for 1 minute. After sealing the plate with aluminum foil, the reaction was carried out at room temperature for 60 minutes.
ADP was converted to ATP by adding 20 µL of kinase detection reagent, and luciferase and luciferin were introduced to detect ATP. The reaction plate was centrifuged at 1000 rpm for 1 minute. After sealing the plate with aluminum foil, the reaction was carried out at room temperature for 60 minutes.
The ADP-GLO luminescence signal values were read by the microplate reader PHERAstar, and the readings were analyzed.

[2] = Tissue distribution: tumor tissue concentration in OVCAR3 tumor-bearing mice; details: BALB/c nude mice, 10 mpk p.o. BIDx28D; for Tumor tissue concentration (ng/g) 2 h after administration: 2 h after last administration; for Tumor tissue concentration (ng/g) 6 h after administration: 6 h after last administration
Protocol: The cells were cultured in an incubator at 37°C and 5% CO2. The medium was changed every other day, and the cells were subcultured every 3 to 4 days after the cells had become confluent. Under sterile conditions, the in vitro cultured OVCAR3 cell suspension was taken, centrifuged, and added to adjust the cell concentration to 1 × 10^8 cells/mL, and an equal volume of Matrigel was added, and inoculated subcutaneously on the back of the right hind forelimb of mice (BALB/c nude mice, female, Beijing Vital River Laboratory Animal Technology Co., Ltd.) (0.1 mL/mouse). […] The mice were randomly divided into groups according to tumor size and weight, and the administration of the test compound was started.
The experiment was divided into a solvent control group, a positive control group, and a test group, with 5-6 mice in each group. For the test compound administration group, the test compound was mixed in 0.5% methylcellulose and administered by oral gavage twice a day. The experiment was terminated 28 days after administration, and PK plasma (EDTA-K2 anticoagulated) samples were collected (0.5 h, 1 h, 2 h, and 6 h after administration), and the mice were euthanized and tumor samples were collected 2 h and 6 h after the last administration.
Tumor concentration test method:
All tumor samples were added with pure water at a ratio of 1:3 (3 mL solvent per g tumor), and homogenized using a cryogenic homogenizer to obtain tumor sample solutions.
Standard curve preparation method:
The powder of the test compound was diluted in a gradient manner with 50% acetonitrile aqueous solution to obtain a series of working solutions. 3 µL of working solution (10, 20, 40, 100, 200, 1000, 2000, 10000, and 20000 ng/mL) was added to 57 µL of blank Balb/c nude mouse tumor sample solution to obtain calibration standard solutions of 0.5 to 1000 ng at concentrations of 0.5, 1, 2, 5, 10, 50, 100, 500, and 1000 ng/mL, respectively, in a total volume of 60 µL.
Quality control samples were prepared in the same manner as the calibration standard solutions: 3 µL of working solution (30, 60, 120, 1000, 8000, and 16000 ng/mL) was added to 57 µL of blank Balb/c nude mouse tumor sample solution to obtain 6 quality control samples with concentrations of 1.5 ng/mL, 3 ng/mL, 6 ng/mL, 50 ng/mL, 400 ng/mL, and 800 ng/mL, respectively, with a total volume of 60 µL.
30 µL of the sample (including standard solution, quality control sample, and test sample) was taken, and 200 µL of protein precipitant containing acetonitrile was added to precipitate the protein, vortexed for 30 seconds, then centrifuged at 4°C and 3900 rpm for 15 minutes, and then the supernatant was aspirated and diluted 3 times with water. 5 µL of the diluted supernatant was loaded on the LC/MS/MS system for quantitative analysis.

[3] = Metabolic stability in human hepatocytes; details: for hepatocyte CLint at 1 µM: In vitro Clint (µL/min/10^6 cells); for half-life at 1 µM: t1/2 (min)
[4] = TS-FeSSIF & TS-FeSSGF solubility test; details: pH 5
[5] = 24 h, pH 5
physchem = details: pH 5, Solubility (µg/mL)

Row | Structure (SMILES) | IC50 (HCC1569 cells; HCC1569, 120 h) | IC50 (PKMYT1 enzyme) | further results
1 | Cc1cc(F)c(O)c(C)c1-n1c(N)c(C(N)=O)c2cc(Br)c(C)nc21 (atropisomer, axis not shown) [Example 58.1] | 0.083 µM | 0.00308 µM | half-life at 1 µM ([1]; liver microsomes): 1.16 h; microsomal CLint at 1 µM ([1]; liver microsomes): 19.9 µL/min/mg
2 | Cc1cc(F)c(O)c(C)c1-n1c(N)c(C(N)=O)c2cc(C(F)(F)F)c(C)nc21 (atropisomer, axis not shown) [Example 59.1] | 0.056 µM | 0.00449 µM | Tumor tissue concentration (ng/g) 2 h after administration [2]: 633 ng/g; Tumor tissue concentration (ng/g) 6 h after administration [2]: 231 ng/g; half-life at 1 µM ([1]; liver microsomes): 3.08 h; microsomal CLint at 1 µM ([1]; liver microsomes): < 7.5 µL/min/mg; hepatocyte CLint at 1 µM ([3]; Female): 10 µL/min/1e6 cells; hepatocyte CLint at 1 µM ([3]; Male): 7 µL/min/1e6 cells; half-life at 1 µM ([3]; Female): 2.3 h; half-life at 1 µM ([3]; Male): 3.3 h; solubility at 24 h ([4]; ts-fessgf): 253 µg/mL (≈ 639 µM); solubility at 24 h ([4]; ts-fessif): 352 µg/mL (≈ 888 µM)
3 | Cc1cc2c(C(N)=O)c(N)n(-c3c(C)ccc(O)c3C)c2nc1C (atropisomer, axis not shown) [RP-6306, reference compound] |  |  | Tumor tissue concentration (ng/g) 2 h after administration [2]: 172 ng/g; Tumor tissue concentration (ng/g) 6 h after administration [2]: 18 ng/g; half-life at 1 µM ([1]; microsomes): 0.377 h; microsomal CLint at 1 µM ([1]; microsomes): 61.3 µL/min/mg; Solubility [5]: 33.9 µg/mL (≈ 105 µM); solubility at 24 h (physchem): 31.6 µg/mL (≈ 97.4 µM)
4 | Cc1c(O)cc(F)c(C)c1-n1c(N)c(C(N)=O)c2cc(-c3ccccc3)cnc21 (racemic) [Example 119] | 0.044 µM | 0.0152 µM | 
5 | Cc1cc(F)c(O)c(C)c1-n1c(N)c(C(N)=O)c2cc(C(C)C)c(C)nc21 (racemic) [Example 159] | 0.0562 µM | 0.0151 µM | 
6 | Cc1cc(F)c(O)c(C)c1-n1c(N)c(C(N)=O)c2cc(C3CC3)c(C)nc21 (single isomer, unassigned) [Example 141.1] | 0.061 µM | 0.00256 µM | 
7 | Cc1cc2c(C(N)=O)c(N)n(-c3c(C)c(O)cc(F)c3C)c2nc1C [Example 20, 2-amino-1-(3-fluoro-5-hydroxy-2,6-dimethylphenyl)-5,6-dimethyl-1H-pyrrolo[2,3-b]pyridine-3-carboxamide] | 0.04 µM | 0.0153 µM | 
8 | Cc1cc(F)c(O)c(C)c1-n1c(N)c(C(N)=O)c2cc(Br)c(C)nc21 [Example 58, 2-Amino-5-bromo-1-(4-fluoro-3-hydroxy-2,6-dimethylphenyl)-6-methyl-1H-pyrrolo[2,3-b]pyridine-3-carboxamide] |  | 0.00357 µM | IC50 (HCC1569 cells; 120 h): 0.07 µM
9 | Cc1c(O)cc(F)c(C)c1-n1c(N)c(C(N)=O)c2cc(C3CC3)cnc21 [Example 80] | 0.016 µM | 0.00351 µM | 
10 | Cc1c(O)cc(F)c(C)c1-n1c(N)c(C(N)=O)c2cc(Cl)cnc21 [Example 81] | 0.066 µM | 0.00919 µM | 
11 | Cc1c(O)cc(F)c(C)c1-n1c(N)c(C(N)=O)c2cc(Br)cnc21 [Example 99] | 0.04 µM | 0.00968 µM | 
12 | C#Cc1cnc2c(c1)c(C(N)=O)c(N)n2-c1c(C)c(O)cc(F)c1C [Example 101] | 0.094 µM | 0.0068 µM | 
13 | Cc1c(O)cc(F)c(C)c1-n1c(N)c(C(N)=O)c2cc(C3CCCCC3)cnc21 [Example 102] | 0.082 µM | 0.0273 µM | 
14 | Cc1nc2c(cc1F)c(C(N)=O)c(N)n2-c1c(C)c(O)cc(F)c1C [Example 105] | 0.054 µM | 0.00243 µM | 
15 | Cc1nc2c(cc1C1CC1)c(C(N)=O)c(N)n2-c1c(C)c(O)cc(F)c1C [Example 110] | 0.015 µM | 0.00577 µM | 
16 | Cc1nc2c(cc1C1CCCC1)c(C(N)=O)c(N)n2-c1c(C)c(O)cc(F)c1C [Example 112] | 0.018 µM | 0.0338 µM | 
17 | Cc1nc2c(cc1C1=CCCC1)c(C(N)=O)c(N)n2-c1c(C)c(O)cc(F)c1C [Example 116] | 0.028 µM | 0.0259 µM | 
18 | Cc1nc2c(cc1C(F)(F)F)c(C(N)=O)c(N)n2-c1c(C)c(O)cc(F)c1C [Example 120, 2-amino-1-(3-fluoro-5-hydroxy-2,6-dimethylphenyl)-6-methyl-5-(trifluoromethyl)-1H-pyrrolo[2,3-b]pyridine-3-carboxamide] |  | 0.00909 µM | IC50 (HCC1569 cells; 120 h): 0.014 µM
19 | Cc1nc2c(cc1-c1ncco1)c(C(N)=O)c(N)n2-c1c(C)c(O)cc(F)c1C [Example 121] | 0.021 µM | 0.00511 µM | 
20 | C=Cc1nc2c(cc1C)c(C(N)=O)c(N)n2-c1c(C)c(O)cc(F)c1C [Example 122] | 0.028 µM | 0.00871 µM | 
21 | Cc1cc2c(C(N)=O)c(N)n(-c3c(C)c(O)cc(F)c3C)c2nc1-c1cccnc1 [Example 123] | 0.058 µM | 0.00648 µM | 
22 | Cc1nc2c(cc1-c1nccs1)c(C(N)=O)c(N)n2-c1c(C)c(O)cc(F)c1C [Example 127] | 0.014 µM | 0.00917 µM | 
23 | Cc1nc2c(cc1-c1cnn(C)c1)c(C(N)=O)c(N)n2-c1c(C)c(O)cc(F)c1C [Example 128] | 0.069 µM | 0.0169 µM | 
24 | Cc1nc2c(cc1-c1ccncc1)c(C(N)=O)c(N)n2-c1c(C)c(O)cc(F)c1C [Example 129] | 0.038 µM | 0.0105 µM | 
25 | Cc1nc2c(cc1-c1cccnc1)c(C(N)=O)c(N)n2-c1c(C)c(O)cc(F)c1C [Example 131] | 0.023 µM | 0.0112 µM | 
26 | Cc1nc2c(cc1N1CCOCC1)c(C(N)=O)c(N)n2-c1c(C)c(O)cc(F)c1C [Example 134] | 0.056 µM | 0.0336 µM | 
27 | CCc1nc2c(cc1C)c(C(N)=O)c(N)n2-c1c(C)c(O)cc(F)c1C [Example 136] | 0.021 µM | 0.0099 µM | 
28 | Cc1c(O)cc(F)c(C)c1-n1c(N)c(C(N)=O)c2cc3c(nc21)CCC3 [Example 179] | 0.022 µM | 0.00313 µM | 
29 | Cc1c(O)cc(F)c(C)c1-n1c(N)c(C(N)=O)c2cc3c(nc21)CCO3 [Example 181] | 0.063 µM | 0.0348 µM | 
30 | Cc1c(O)cc(F)c(C)c1-n1c(N)c(C(N)=O)c2cc3ccccc3nc21 [Example 191] | 0.016 µM | 0.00285 µM | 
